pIC50, pKi: −log10 of the molar value.
Columns and labels:
[1] = target: T1, 3-oxo-5-alpha-steroid 4-dehydrogenase 2 (Homo sapiens, UniProt P31213); test: Inhibition of type-2 human steroid 5-alpha-reductase.; conditions: read-out: Ki app
T1 sequence (P31213 whole entry): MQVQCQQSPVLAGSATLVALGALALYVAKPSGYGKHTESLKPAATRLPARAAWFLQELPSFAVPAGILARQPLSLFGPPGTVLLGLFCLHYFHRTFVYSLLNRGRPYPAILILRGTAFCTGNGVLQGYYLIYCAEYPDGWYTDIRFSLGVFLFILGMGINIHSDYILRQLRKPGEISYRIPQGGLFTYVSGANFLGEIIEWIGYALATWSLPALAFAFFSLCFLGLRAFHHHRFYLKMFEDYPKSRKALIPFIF

[2] = target: T2, 3-oxo-5-alpha-steroid 4-dehydrogenase 1 (Homo sapiens, UniProt P18405); test: Inhibition of type-1 human steroid 5-alpha-reductase; conditions: read-out: Ki app
T2 sequence (P18405 whole entry): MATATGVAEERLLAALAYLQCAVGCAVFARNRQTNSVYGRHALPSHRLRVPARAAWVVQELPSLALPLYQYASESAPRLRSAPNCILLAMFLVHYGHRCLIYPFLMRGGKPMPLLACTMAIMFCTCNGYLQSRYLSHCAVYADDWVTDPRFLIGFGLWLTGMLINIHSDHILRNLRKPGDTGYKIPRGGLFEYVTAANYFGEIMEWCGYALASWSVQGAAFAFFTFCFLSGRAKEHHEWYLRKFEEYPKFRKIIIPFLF

[3] = target: T3, 3-oxo-5-alpha-steroid 4-dehydrogenase 2 (Homo sapiens) (UniProt P31213); conditions: 20 uM
T3 sequence (whole entry): T1 sequence (P31213 whole entry)
Description: Inhibitory activity against type-2 human steroid 5-alpha-reductase at a concentration of 20 uM

[4] = target: T3, 3-oxo-5-alpha-steroid 4-dehydrogenase 2 (Homo sapiens); test: Inhibitory activity against type-2 human steroid 5-alpha-reductase at a concentration of 2.5 uM
[5] = target: T1, 3-oxo-5-alpha-steroid 4-dehydrogenase 2; test: (§1) Inhibitory activity against type-2 human steroid 5-alpha-reductase at a concentration of 1 uM; No inhibition
[6] = target: T1, 3-oxo-5-alpha-steroid 4-dehydrogenase 2; test: as §1; remark: listed apart in the source
[7] = target: T1, 3-oxo-5-alpha-steroid 4-dehydrogenase 2; test: Inhibitory activity against type-2 human steroid 5-alpha-reductase at a concentration of 1 uM: No inhibition
[8] = target: T4, 3-oxo-5-alpha-steroid 4-dehydrogenase 1 (Homo sapiens) (UniProt P18405); test: Inhibitory activity against type-1 human steroid 5-alpha-reductase at a concentration of 2.5 uM
T4 sequence (whole entry): T2 sequence (P18405 whole entry)

[9] = target: T3, 3-oxo-5-alpha-steroid 4-dehydrogenase 2 (Homo sapiens); conditions: 10 uM
Description: Inhibitory activity against type-2 human steroid 5-alpha-reductase at a concentration of 10 uM

[10] = target: T1, 3-oxo-5-alpha-steroid 4-dehydrogenase 2; test: Inhibitory activity against type-2 human steroid 5-alpha-reductase.
[11] = target: T2, 3-oxo-5-alpha-steroid 4-dehydrogenase 1; test: Inhibitory activity against type-1 human steroid 5-alpha-reductase.

pKi [1]	pKi [2]	SMILES	also measured
4.70	6.04	CC1=C2NCc3cc(Cl)ccc3[C@@]2(C)CCC1=O	inhibition [3]: 49%
10.10	–	CC(C)CC(=O)[C@H]1CCC2C3CNC4=CC(=O)CC[C@]4(C)C3CC[C@@]21C (some centres undefined)	–
8.89	5.49	CC(C)(C)NC(=O)[C@H]1CCC2C3CC=C4C=C([PH](=O)O)CC[C@]4(C)C3CC[C@@]21C (some centres undefined)	–
8.70	8.52	CCN(CC)C(=O)[C@H]1CC[C@H]2[C@@H]3CC[C@H]4N(C)C(=O)CC[C@]4(C)[C@H]3CC[C@]12C	–
5.60	6.49	O=C(O)c1ccc2c(c1)CCc1cc(Cl)ccc1-2	inhibition [4]: 50%
–	–	CN1C(=O)CC[C@]2(C)c3ccc(Cl)cc3CC[C@@H]12	Ki app [5]: Not Active; Ki app [6]: Not Active
–	< 5.60	COc1cccc2c1CC[C@H]1C=C([N+](=O)[O-])CC[C@]21C	Ki app [7]: Not Active; inhibition [8]: 10%
6.59	5.92	C[C@]12CCC(C(=O)O)=CC1=CCc1cc(Cl)ccc12	–
7.52	5.38	CC(C)N(C(=O)[C@H]1CCC2C3CC[C@H]4C=C([N+](=O)[O-])CC[C@]4(C)C3CC[C@@]21C)C(C)C (some centres undefined)	–
5.00	7.59	O=C(O)c1ccc2c(c1)CCc1cc(Br)ccc1-2	–
5.00	6.50	O=C(O)c1ccc2c(c1)CCc1ccccc1-2	inhibition [9]: 20%
–	–	CC(C)(C)NC(=O)[C@H]1CC[C@H]2[C@@H]3CC[C@H]4NC(=O)C=C[C@]4(C)[C@H]3CC[C@]12C [FINASTERIDE]	pIC50 [10]: 8.38; pIC50 [11]: 6.30
5.00	< 5.60	O=C(O)c1ccc2c(c1)Cc1ccccc1-2	inhibition [8]: 30%

SMILES	pKi [1]	pKi [2]	also measured
C[C@]12CCC([PH](=O)O)=CC1=CCc1cc(Cl)ccc12	5.80	5.72	–
CC(C)(C)NC(=O)[C@H]1CC[C@H]2[C@@H]3CCc4cc(C(=O)O)ccc4[C@H]3CC[C@]12C	9.40	5.80	–

— ChEMBL document CHEMBL1128981, “A comparison of steroidal and non-steroidal inhibitors of human steroid 5-reductase: New tricyclic aryl acid inhibitors of the type-1 isozyme” (Bioorg Med Chem Lett, 1996)
